For one test, the system named is MV4-11 leukemia cells. Put plainly: Inhibition of proliferation of MV4-11 leukemia cells (CellTiter-Glo, 72 h). The conditions noted are these: read-out: IC50 value, MV4-11 cell proliferation. Type of test: cell-based. As for the experimental part: Specific experimental procedures: 1) At Day 0: Inoculating trypsin-digested cells in 96-well plate and suspending the plate in cell culture medium; measure cell density using an automatic cell counter, diluting the cells with the culture medium to appropriate density, adding 100 μl of cell suspension in the 96-well plate, and incubating a cell-free medium as a control well in a cell incubator with […] at 37° C. overnight; 2) Day 1: Treating test compounds of the cells using a drug for a total of 8 concentrations, and diluting at a 3× concentration, wherein 10 μM is a starting test concentration of the test compounds. […] IC50 values are obtained by a four-parameter regression using software attached to the plate reader (the specific results are shown in Table 2).

A further test has as its target SHP2 enzyme (Homo sapiens (Human), UniProt Q06124). Description: Inhibitory activity against SHP2 enzyme (Caliper conversion rate). The conditions noted are these: read-out: SHP2 Enzyme Inhibition IC50 Value. In kind it is biochemical. As for the experimental part:
(1) Preparing 1×Reaction Buffer according to the BPS Biosciences' Instructions for Use of the SHP2 enzyme. (2) Preparing a compound concentration gradient: Test the test compound at 10 μM under 3× dilution for 10 concentrations, diluting to a 100% dimethyl sulfoxide solution at a 100× final concentration in a 384-well plate, and diluting the compound with Precision 4× for 10 concentrations. Transferring 250 nL of the compound at the 100× final concentration to a target plate OptiPlate-384F using a dispenser Echo 550. […] (3) Preparing the activation peptide solution at a 5× final concentration with the 1×Reaction Buffer, adding 5 μL of the solution to a reaction plate, respectively, and centrifuging at 1000 rpm for 1 min. (4) Preparing an enzyme solution at a 2.5× final concentration with the 1×Reaction Buffer, adding 10 μL of the solution to the reaction plate, respectively, centrifuging at 1000 rpm for 1 min, and incubating at room temperature for 60 min. (5) Preparing a substrate peptide solution at a 2.5× final concentration with the 1×Reaction Buffer, centrifuging at 1000 rpm for 1 min, and incubating at room temperature for 30 min. (6) Adding 30 μL of stop test solution to stop the reaction, centrifuging at 1000 rpm for […], and mixing well by shaking. (7) Reading the conversion rate with a Caliper EZ Reader. (7) Data analysis:
Wherein: Conversion %/_sample is the reading of a conversion rate of a sample; Conversion %_min: mean of negative control wells, which represents the reading of a conversion rate in absence of enzyme activity wells; Conversion %_max: mean of a ratio of positive control wells, which represents the reading of a conversion rate in absence of compound inhibition wells.

The test system of test [1] is NCI-H358 tumor cell xenograft. Put plainly: Growth inhibition of xenograft in nude mice. In kind it is in vivo. Conditions: 10 mg/kg, orally, once daily, for 21 consecutive days. The source says:
(§1) Experimental method: 1) Culturing MV 4-11/KYSE520/NCI-H358 cells in a culture medium containing 10% fetal bovine serum. Harvesting tumor cells at an exponential growth phase, and resuspending in PBS to suitable concentrations for subcutaneous tumor inoculation in nude mice. 2) Subcutaneously inoculating 2-8×10^7 tumor cells at the right back of a mouse, and resuspending the cells in PBS and matrigel (1:1); observing tumor growth regularly, and randomizing mice for administration based on tumor size and mouse body weight when tumors grow to a mean volume of ˜120 mm^3-[…]. 3) Defining the day of tumor cell inoculation as Day 0. Prior to the start of dosing, weighing all animals and measuring the tumor volume with a vernier caliper. 3) Administering orally compound of examples (prepared with water for injection containing 1% Tween80 to a desired concentration for use) at a given dose for three consecutive weeks, and giving an equal amount of solvent animals in a solvent control group. Measuring diameters of the xenograft twice a week throughout the experiment, and weighing the mice were at the same time.
(§2) The calculation formula of tumor volume (TV) is: TV=½×a×b^2, wherein a and b represent length and width, respectively. The relative tumor volume (RTV) is calculated based on the measured results using the formula: RTV=Vt/V0, wherein V0 is the tumor volume measured at the time of dosing in separate cages (i.e., Day 0) and Vt is the tumor volume at each measurement. The anti-tumor activity is evaluated by the following measures: 1) relative tumor proliferation rate T/C (%), which is calculated by the following formula: T/C (%)=(TRTV/CRTV)×100%, wherein TRTV: RTV of ae treatment group; CRTV: RTV of a negative control group; 2) inhibition rate of tumor volume growth GI %, which is calculated by the following formula: GI %=[1−(TVt−TV0)/(CVt−[…])]×100%, wherein TVt is the tumor volume at each measurement in the treatment group; TV0 is the tumor volume obtained at the time of dosing in separate cages in the treatment group; CVt is the tumor volume at each measurement in the control group; CV0 is the tumor volume obtained at the time of dosing in separate cages in the control group (specific data are shown in Table 4).

In test [2] the test system is KYSE520 tumor cell xenograft. Description: Growth inhibition of xenograft in nude mice. Conditions: 30 mg/kg, orally, once daily, for 21 consecutive days. Type of test: in vivo.
Text: as §1, §2

The test system of test [3] is MV 4-11 tumor cell xenograft. Description: Growth inhibition of xenograft in nude mice. In kind it is in vivo. The conditions noted are these: 30 mg/kg, orally, once daily, for 21 consecutive days.
Text: as §1, §2

The values that follow come from patent US12281118B2, “Nitrogen-containing fused heterocyclic SHP2 inhibitor compound, preparation method, and use” (SHANGHAI RINGENE BIOPHARMA CO., LTD., priority 2018, dated 2025).

Like-named read-outs stand apart in the source and are kept apart here.

By T/C is commonly meant the result in the treated group divided by that in the control group, in per cent.

SHP2 enzyme, sequence (Q06124 whole entry): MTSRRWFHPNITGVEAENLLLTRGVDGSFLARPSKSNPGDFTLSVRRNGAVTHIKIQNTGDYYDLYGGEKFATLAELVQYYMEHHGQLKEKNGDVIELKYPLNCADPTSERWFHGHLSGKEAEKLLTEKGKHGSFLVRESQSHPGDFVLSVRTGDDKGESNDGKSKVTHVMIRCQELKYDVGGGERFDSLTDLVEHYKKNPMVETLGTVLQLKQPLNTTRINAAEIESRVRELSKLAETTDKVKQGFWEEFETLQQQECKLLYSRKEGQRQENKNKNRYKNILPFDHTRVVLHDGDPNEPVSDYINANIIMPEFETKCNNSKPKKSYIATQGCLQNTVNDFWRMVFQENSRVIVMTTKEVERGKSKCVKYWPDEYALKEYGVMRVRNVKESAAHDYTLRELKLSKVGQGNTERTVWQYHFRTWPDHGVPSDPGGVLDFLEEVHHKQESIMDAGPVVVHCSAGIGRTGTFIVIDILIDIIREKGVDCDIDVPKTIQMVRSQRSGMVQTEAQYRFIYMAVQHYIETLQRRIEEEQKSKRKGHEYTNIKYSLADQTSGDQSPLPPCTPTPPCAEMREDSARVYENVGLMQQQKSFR

As for `Cc1nc(N2CCC3(CC2)CO[C@@H](C)[C@H]3N)n2ccnc2c1Sc1ccnc(N)c1Cl` [Comparative Compound 3, reference compound], the IC50 with MV4-11 leukemia cells (Homo sapiens, MV4-11, 72 h) turned out to be 43 nM; at SHP2 enzyme, 6.8 nM. The T/C in test [1] was 39%.
In the case of `CC1(N)CCN(c2nc(N)c(-c3cccc(Cl)c3Cl)c3nccn23)CC1` [Example 27, 5-(4-amino-4-methylpiperidin-1-yl)-8-(2,3-dichlorophenyl) imidazole [1,2-c] pyrimidin-7-amine], the IC50 was determined as 2550 nM with MV4-11 leukemia cells (72 h) and 287 nM on SHP2 enzyme.
Consider `CC1(N)CCN(c2cnc(-c3cccc(Cl)c3Cl)c(N)n2)CC1` [SHP099, reference compound], for which the IC50 with MV4-11 leukemia cells (72 h) was 1670 nM. Moreover, the T/C in test [2] turned out to be 43%; in test [3], 47%.
